In patent US20150038430A1, “THERAPEUTIC PEPTIDOMIMETIC MACROCYCLES” (AILERON Therapeutics, Inc., priority 2008, published 2015):
Numbered stars: 1 amine (or outer) side, 2 acyl side, 3 side chain; on linkers, the order of the positions; unused ones are H or OH. Bridge positions count the residues as written; N and C are the ends. Square brackets hold non-standard residues; d marks the D form. Peptide text beside a SMILES is read from it. * marks the point of attachment. ξ: configuration not given here. ξαMeNle(6-ylidene) = CC(CCCC=[*:3])(N[*:1])C(=O)[*:2]; Nle = CCCC[C@H](N)C(=O)O; Aib = CC(C)(N)C(=O)O; Propionyl = CCC(=O)*

Experiments:
A375 = type: cell-based, human; settings: 24 h
Procedure: (§1) Cell viability assays shown in FIGS. 34-52 were performed according to a similar protocol. Cells were split at optimal cell density a day prior to the initiation of the study. The next day, cells were washed twice in serum-free Opti-MEM media and 4000 cells/well were added to each well in a final volume of […] Opti-MEM. For serum-free experiments, macrocycles were diluted from 2 mM stocks (100% DMSO) in sterile water to prepare 400 μM working solutions. A 40 μM solution was then generated by ten-fold dilution in assay buffer. The macrocycle and controls were then serially diluted two-fold in assay buffer in dosing plates to provide concentrations between 1.2 and 40 μM, respectively. For experiments in 2% human serum, macrocycles were diluted from 10 mM stocks (100% DMSO) in sterile water to prepare 1 mM working solutions. A 100 μM solution was generated by ten-fold dilution in assay buffer. The macrocycles and controls were then serially diluted two-fold in assay buffer in dosing plates to provide concentrations between 3 and 100 μM, respectively. 50 μl of each dilution was then added to the appropriate wells of the test plate to achieve final concentrations of the macrocycle between 0.6 to 20 μM (for serum free experiment) or 1.5 to 50 μM (for 2% serum experiment), respectively. Controls included wells without macrocycles containing the same concentration of DMSO as the macrocycle-containing wells, wells containing 0.1% Triton X-100, and wells containing no cells. Plates were incubated for 24 hours at 37° C. in a humidified 5% CO2 atmosphere. At the end of a 24 hr incubation period, a CellTiter-Glo Luminescent Cell Viability Assay was performed according to manufacturer's instructions (Promega, catalog #G7571) and the luminescence was measured using a BIO-TEK synergy HT Plate reader. Values were plotted as percent viable, i.e. as a percentage of the negative control value (derived from cells exposed to DMSO only). All assays were performed in duplicate.
(§2) The following tables summarize the EC50 values (μM) observed with peptidomimetic macrocycles of the invention in various cell lines: […]

DHL-6 = type: cell-based, human; settings: 24 h
Procedure: as §1, §2

Jurkat = type: cell-based, human; settings: 24 h
Procedure: as §1, §2

MDA-MB231-Met = type: cell-based, human; settings: 24 h
Procedure: as §1, §2

MM1S = type: cell-based, human; settings: 24 h
Procedure: as §1, §2

Molt-4 = type: cell-based, human; settings: 24 h
Procedure: as §1, §2

NCI-H82 (SCLC-MCL1+) = type: cell-based, human; settings: 24 h
Procedure: as §1, §2

OVCAR8 = type: cell-based, human; settings: 24 h
Procedure: as §1, §2

PC3 = type: cell-based, human; settings: 24 h
Procedure: as §1, §2

RS4;11 = type: cell-based, human; settings: 24 h
Procedure: as §1, §2

Raji = type: cell-based, human; settings: 24 h
Procedure: as §1, §2

SEMK2 = type: cell-based, human; settings: 24 h
Procedure: as §1, §2

Bcl-xL = Bcl-xL (Homo sapiens, UniProt Q07817); assay: Kd, μM | Bcl-xL
Description: (§3) Table printed on a drawing sheet, Figure 27
Head of the field: Kd, μM | Bcl-xL
Where the first naming reader finds the target: head: Kd, μM | Bcl-xL

Mcl-1 = assay: Kd, μM | Mcl-1
Description: as §3
Head of the field: Kd, μM | Mcl-1
First copying reader's note: The last row (ABT-737) is a small-molecule comparator; the three plots above the table are not copied.
Where the first naming reader finds the target: head: Kd, μM | Mcl-1

Chain of Bcl-xL (Q07817 whole entry, looked up): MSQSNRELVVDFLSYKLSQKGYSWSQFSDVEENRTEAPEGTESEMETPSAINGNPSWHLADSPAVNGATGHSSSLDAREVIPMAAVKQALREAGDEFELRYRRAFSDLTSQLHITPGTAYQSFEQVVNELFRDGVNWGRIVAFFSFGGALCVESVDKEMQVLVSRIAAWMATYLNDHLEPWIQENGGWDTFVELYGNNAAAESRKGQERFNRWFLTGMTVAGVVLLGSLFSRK

| Compound | EC50 (A375) [µM] | EC50 (DHL-6) [µM] | EC50 (Jurkat) [µM] | EC50 (MDA-MB231-Met) [µM] | EC50 (MM1S) [µM] | EC50 (Molt-4) [µM] | EC50 (NCI-H82 (SCLC-MCL1+)) [µM] | EC50 (OVCAR8) [µM] | EC50 (PC3) [µM] | EC50 (RS4;11) [µM] | EC50 (Raji) [µM] | EC50 (SEMK2) [µM] | Kd (Bcl-xL) [µM] | Kd (Mcl-1) [µM] |
| --- | --- | --- | --- | --- | --- | --- | --- | --- | --- | --- | --- | --- | --- | --- |
| CCCC[C@H](NC(=O)C1(C)CCCC=CCCCC(C)(NC(=O)[C@H](C)NC(=O)[C@H](CC(C)C)NC(=O)[C@H](Cc2c[nH]cn2)NC(=O)[C@H](CCCNC(=N)N)NC(=O)[C@H](C)NC(=O)[C@@H](NC(=O)[C@H](CC(N)=O)NC(=O)[C@H](CCCNC(=N)N)NC(=O)CC)[C@@H](C)CC)C(=O)N[C@@H](C(C)C)C(=O)NCC(=O)N[C@@H](CC(=O)O)C(=O)N1)C(=O)NC(C)(C)C(=O)N[C@@H](CCCNC(=N)N)C(=O)N[C@@H](CO)C(=O)N[C@H](C(N)=O)[C@@H](C)CC (some centres unmarked) [SP-10] (Propionyl-RNIARHLA[ξαMeNle(6-ylidene)]VGD[ξαMeNle(6-ylidene)][Nle][Aib]RSI-NH2; staple 9-13) | 5.2 | 1.9 | 1.9 | 3.1 | 2.5 | 1.9 | 5.7 | 8.1 | 6 | 3.5 | 5 | 8.2 |  |  |
| CCCC[C@@H]1NC(=O)CNC(=O)[C@H]([C@@H](C)CC)NC(=O)C(C)(NC(=O)[C@H](CCCNC(=N)N)NC(=O)[C@H](CC(C)C)NC(=O)[C@H](C)NC(=O)[C@H](CCC(N)=O)NC(=O)[C@H](C)NC(=O)[C@@H](NC(=O)[C@H](Cc2c[nH]c3ccccc23)NC(=O)[C@H](CCCNC(=N)N)NC(C)=O)[C@@H](C)CC)CCCC=CCCCC(C)(C(=O)N[C@@H](Cc2ccccc2)C(=O)N[C@@H](CC(N)=O)C(=O)N[C@@H](C)C(=O)N[C@@H](Cc2ccc(O)cc2)C(=O)N[C@@H](Cc2ccc(O)cc2)C(=O)N[C@@H](C)C(=O)N[C@@H](CCCNC(=N)N)C(=O)N[C@@H](CCCNC(=N)N)C(N)=O)NC1=O (some centres unmarked) [SP-12] (Ac-RWIAQALR[ξαMeNle(6-ylidene)]IG[Nle][ξαMeNle(6-ylidene)]FNAYYARR-NH2; staple 9-13) | 0.7 |  | 0.4 | 0.5 |  | 0.7 | 0.9 | 0.7 | 1.9 | 1.71 | 0.3 | 0.5 | 0.19 | 2.5 |
| CC[C@H](C)[C@H](NC(=O)[C@H](Cc1c[nH]c2ccccc12)NC(=O)[C@H](CCCNC(=N)N)NC(C)=O)C(=O)N[C@@H](C)C(=O)N[C@@H](CCC(N)=O)C(=O)N[C@@H](C)C(=O)N[C@@H](CC(C)C)C(=O)N[C@@H](CCCNC(=N)N)C(=O)NC1(C)CCCC=CCCCC(C)(C(=O)N[C@@H](Cc2ccccc2)C(=O)N[C@@H](CC(N)=O)C(=O)N[C@@H](C)C(=O)N[C@@H](Cc2ccccc2)C(=O)N[C@@H](Cc2ccc(O)cc2)C(=O)N[C@@H](C)C(=O)N[C@@H](CCCNC(=N)N)C(=O)N[C@@H](CCCNC(=N)N)C(N)=O)NC(=O)[C@H](CC(=O)O)NC(=O)CNC(=O)[C@H]([C@@H](C)CC)NC1=O (some centres unmarked) [SP-15] (Ac-RWIAQALR[ξαMeNle(6-ylidene)]IGD[ξαMeNle(6-ylidene)]FNAFYARR-NH2; staple 9-13) | 0.8 | 0.5 | 0.4 | 0.9 | 0.6 | 0.7 |  | 1.8 | 2.1 | 1.7 | 1 | 0.8 |  |  |
| CC[C@H](C)[C@H](NC(C)=O)C(=O)N[C@@H](Cc1c[nH]c2ccccc12)C(=O)N[C@H](C(=O)N[C@@H](C)C(=O)N[C@@H](CCC(N)=O)C(=O)N[C@@H](C)C(=O)N[C@@H](C)C(=O)N[C@@H](CCCNC(=N)N)C(=O)NC1(C)CCCC=CCCCC(C)(C(=O)N[C@@H](C)C(=O)N[C@@H](CC(N)=O)C(=O)N[C@@H](C)C(=O)N[C@@H](Cc2ccc(O)cc2)C(=O)N[C@@H](Cc2ccc(O)cc2)C(=O)N[C@@H](C)C(=O)N[C@@H](CCCNC(=N)N)C(=O)N[C@@H](CCCNC(=N)N)C(N)=O)NC(=O)CNC(=O)[C@H]([C@@H](C)CC)NC(=O)[C@H](CC(=O)O)NC1=O)[C@@H](C)CC (some centres unmarked) [SP-24] (Ac-IWIAQAAR[ξαMeNle(6-ylidene)]DIG[ξαMeNle(6-ylidene)]ANAYYARR-NH2; staple 9-13) | > 20 |  | > 20 | > 20 |  |  | > 20 | > 20 | > 20 |  |  |  |  |  |
| CC[C@H](C)[C@H](NC(C)=O)C(=O)N[C@@H](Cc1c[nH]c2ccccc12)C(=O)N[C@H](C(=O)N[C@@H](C)C(=O)N[C@@H](CCC(N)=O)C(=O)N[C@@H](C)C(=O)N[C@@H](CC(C)C)C(=O)N[C@@H](CCCNC(=N)N)C(=O)NC1(C)CCCC=CCCCC(C)(C(=O)N[C@@H](Cc2ccccc2)C(=O)N[C@@H](CC(N)=O)C(=O)N[C@@H](C)C(=O)N[C@@H](Cc2ccc(O)cc2)C(=O)N[C@@H](Cc2ccc(O)cc2)C(=O)N[C@@H](C)C(=O)N[C@@H](CCCNC(=N)N)C(=O)N[C@@H](CCCNC(=N)N)C(N)=O)NC(=O)[C@H](CC(N)=O)NC(=O)CNC(=O)[C@H]([C@@H](C)CC)NC1=O)[C@@H](C)CC (some centres unmarked) [SP-25] (Ac-IWIAQALR[ξαMeNle(6-ylidene)]IGN[ξαMeNle(6-ylidene)]FNAYYARR-NH2; staple 9-13) | 1 | 0.6 | 0.5 | 1 | 0.6 | 0.9 | 0.5 | 1.4 | 0.6 | 1 | 1.8 | 0.9 |  |  |

The remaining molecules from weak to strong by EC50 (A375), led by results:

| EC50 (A375) [µM] | EC50 (DHL-6) [µM] | EC50 (Jurkat) [µM] | EC50 (MDA-MB231-Met) [µM] | EC50 (MM1S) [µM] | EC50 (Molt-4) [µM] | EC50 (NCI-H82 (SCLC-MCL1+)) [µM] | EC50 (OVCAR8) [µM] | EC50 (PC3) [µM] | EC50 (RS4;11) [µM] | EC50 (Raji) [µM] | EC50 (SEMK2) [µM] | Kd (Bcl-xL) [µM] | Kd (Mcl-1) [µM] | Compound |
| --- | --- | --- | --- | --- | --- | --- | --- | --- | --- | --- | --- | --- | --- | --- |
| 4.1 | 2.7 | 1.9 | 2.9 | 5.5 | 1 | 4.2 | 7.1 | 5.7 | 4.3 | 5.7 | 8.1 |  |  | CCC(=O)N[C@@H](CCCNC(=N)N)C(=O)N[C@@H](CC(N)=O)C(=O)N[C@H](C(=O)N[C@@H](C)C(=O)N[C@@H](CCCNC(=N)N)C(=O)N[C@@H](Cc1c[nH]cn1)C(=O)N[C@@H](CC(C)C)C(=O)N[C@@H](C)C(=O)NC1(C)CCCC=CCCCC(C)(C(=O)N[C@@H](Cc2ccccc2)C(=O)N[C@@H](C)C(=O)N[C@@H](CCCNC(=N)N)C(=O)N[C@@H](CO)C(=O)N[C@H](C(N)=O)[C@@H](C)CC)NC(=O)[C@H](CC(=O)O)NC(=O)C(C)(C)NC(=O)[C@H](C(C)C)NC1=O)[C@@H](C)CC (some centres unmarked) [SP-9] (Propionyl-RNIARHLA[ξαMeNle(6-ylidene)]V[Aib]D[ξαMeNle(6-ylidene)]FARSI-NH2; staple 9-13) |
| 1 | 0.5 | 0.9 | 0.6 | 0.7 | 0.6 | 0.6 | 0.9 | 2 | 1 | 1.8 | 1 |  |  | CC[C@H](C)[C@H](NC(=O)[C@H](Cc1c[nH]c2ccccc12)NC(=O)[C@H](CCCNC(=N)N)NC(C)=O)C(=O)N[C@@H](C)C(=O)N[C@@H](CCC(N)=O)C(=O)N[C@@H](C)C(=O)N[C@@H](CC(C)C)C(=O)N[C@@H](CCCNC(=N)N)C(=O)NC1(C)CCCC=CCCCC(C)(C(=O)N[C@@H](Cc2ccccc2)C(=O)N[C@@H](CC(N)=O)C(=O)N[C@@H](C)C(=O)N[C@@H](Cc2ccc(O)cc2)C(=O)N[C@@H](Cc2ccc(O)cc2)C(=O)N[C@@H](C)C(=O)N[C@@H](CCCNC(=N)N)C(=O)N[C@@H](CCCNC(=N)N)C(N)=O)NC(=O)[C@H](CC(N)=O)NC(=O)CNC(=O)[C@H]([C@@H](C)CC)NC1=O (some centres unmarked) [SP-23] (Ac-RWIAQALR[ξαMeNle(6-ylidene)]IGN[ξαMeNle(6-ylidene)]FNAYYARR-NH2; staple 9-13) |
